Laboratory results from patent US12214092B2, “Systems and methods for treating biological fluids” (Cerus Corporation, priority 2017, dated 2025).
Read-outs that look alike come from different tables or passages of the source.

Key:
[1] = Residual post-illumination amotosalen by LED wavelength in bacteria-spiked plasma, HPLC; settings: for Pre-UV S-59: pre-illumination
S. epidermidis = assay: Amotosalen and two sequential UV light doses (UVC + UVA) treatment of S. epidermidis in plasma, colony forming unit assay; assay type: cell-based; settings: 15 μM amotosalen, titer pre-UV 7.51; for Titer Post-Second: ~3 J/cm^2 each
Method: Additionally, any two or more wavelengths of narrow bandwidth light are evaluated in combination, such as for example, photochemical treatment of a biological fluid using amotosalen and ultraviolet light of a first peak wavelength and ultraviolet light of a second peak wavelength, sequentially or concurrently. More specifically, in one example pathogen inactivation of E. coli (Gram negative) and S. epidermidis (Gram positive) bacteria was evaluated using amotosalen and the device with LEDs of wavelengths described in Example 8. […] The spiked plasma units were divided into control (no amotosalen+UV light) and treatment (with amotosalen) conditions, with amotosalen used at 15 μM concentration. The units were aliquoted into six-well plates (5 mL/well) for illumination. Pre-illumination samples were taken and control bacterial titers determined using standard colony forming unit assay. […] Data for pre-illumination titers, post-first illumination titer, post-second illumination titer, and post-treatment (after second illumination) residual amotosalen (S-59) are shown in the following Tables 40-41.

[2] = S-59 photoconversion and photoproducts in platelets in 65% PAS III/35% plasma, 150 μM S-59, HPLC; settings: for % Residual S-59: 3x (~10.8 J/cm^2)
Method: Platelets collected in PAS/Plasma (65% PAS III/35% Plasma) were pooled and split into three 285 mL units for the study. Amotosalen (S-59) was added to a concentration of 150 μM, and the units were illuminated one time (˜3.6 J/cm^2 total dose), two times (˜7.2 J/cm^2 total dose), or three times (˜10.8 J/cm^2 total dose) with the narrow band 340 nm LEDs or 365 nm LEDs using the device of Example 1, or with the INT-100 device. Efficiency of S-59 photoconversion, as well as photoproducts formation, was assessed post-UVA illumination by HPLC as in previous Examples.
HPLC analysis of post-illumination samples was used to determine area counts and relative levels for photoproducts generated from the various treatment conditions.

Cc1oc2c(C)c3oc(=O)cc(C)c3cc2c1COCCN [S-59, 3-(2-aminoethoxymethyl)-2,5,9-trimethylfuro[3,2-g]chromen-7-one]
ATP (platelets; 340 nm): 4.0 mmol/×10^8
Lysis (platelets; 340 nm): 2.36%
pH (37° C.) (platelets; 340 nm): 6.61
ATP (platelets; 365 nm): 4.8 mmol/×10^8
Lysis (platelets; 365 nm): 1.72%
pH (37° C.) (platelets; 365 nm): 6.74
ATP (platelets; INT 100): 4.1 mmol/×10^8
Lysis (platelets; INT 100): 2.25%
pH (37° C.) (platelets; INT 100): 6.60
Pre-UV S-59 ([1]; E. coli plasma, 15 μM arm, 265 nm arm): 16.0 µM
Post-UV S-59 ([1]; E. coli plasma, 15 μM arm, 265 nm, ~3 J/cm^2): 12.7 µM
Pre-UV S-59 ([1]; E. coli plasma, 15 μM arm, 280 nm arm): 16.2 µM
Post-UV S-59 ([1]; E. coli plasma, 15 μM arm, 280 nm, ~3 J/cm^2): 12.6 µM
Pre-UV S-59 ([1]; E. coli plasma, 15 μM arm, 310 nm arm): 15.4 µM
Post-UV S-59 ([1]; E. coli plasma, 15 μM arm, 310 nm, ~3 J/cm^2): 5.5 µM
Pre-UV S-59 ([1]; E. coli plasma, 15 μM arm, 325 nm arm): 15.8 µM
Post-UV S-59 ([1]; E. coli plasma, 15 μM arm, 325 nm, ~3 J/cm^2): 4.0 µM
Pre-UV S-59 ([1]; E. coli plasma, 15 μM arm, 340 nm arm): 16.0 µM
Post-UV S-59 ([1]; E. coli plasma, 15 μM arm, 340 nm, ~3 J/cm^2): 3.7 µM
Pre-UV S-59 ([1]; E. coli plasma, 15 μM arm, 365 nm arm): 16.2 µM
Post-UV S-59 ([1]; E. coli plasma, 15 μM arm, 365 nm, ~3 J/cm^2): 8.1 µM
Pre-UV S-59 ([1]; E. coli plasma, 15 μM arm, 385 nm arm): 15.3 µM
Post-UV S-59 ([1]; E. coli plasma, 15 μM arm, 385 nm, ~3 J/cm^2): 14.3 µM
Pre-UV S-59 ([1]; E. coli plasma, 150 μM arm, 265 nm arm): 148.9 µM
Post-UV S-59 ([1]; E. coli plasma, 150 μM arm, 265 nm, ~3 J/cm^2): 115.0 µM
Pre-UV S-59 ([1]; E. coli plasma, 150 μM arm, 280 nm arm): 152.7 µM
Post-UV S-59 ([1]; E. coli plasma, 150 μM arm, 280 nm, ~3 J/cm^2): 148.1 µM
Pre-UV S-59 ([1]; E. coli plasma, 150 μM arm, 310 nm arm): 151.1 µM
Post-UV S-59 ([1]; E. coli plasma, 150 μM arm, 310 nm, ~3 J/cm^2): 56.8 µM
Pre-UV S-59 ([1]; E. coli plasma, 150 μM arm, 325 nm arm): 141.6 µM
Post-UV S-59 ([1]; E. coli plasma, 150 μM arm, 325 nm, ~3 J/cm^2): 52.1 µM
Pre-UV S-59 ([1]; E. coli plasma, 150 μM arm, 340 nm arm): 142.2 µM
Post-UV S-59 ([1]; E. coli plasma, 150 μM arm, 340 nm, ~3 J/cm^2): 48.1 µM
Pre-UV S-59 ([1]; E. coli plasma, 150 μM arm, 365 nm arm): 153.2 µM
Post-UV S-59 ([1]; E. coli plasma, 150 μM arm, 365 nm, ~3 J/cm^2): 79.8 µM
Pre-UV S-59 ([1]; E. coli plasma, 150 μM arm, 385 nm arm): 148.4 µM
Post-UV S-59 ([1]; E. coli plasma, 150 μM arm, 385 nm, ~3 J/cm^2): 135.1 µM
Pre-UV S-59 ([1]; P. acnes plasma, 15 μM arm, 265 nm arm): 15.7 µM
Post-UV S-59 ([1]; P. acnes plasma, 15 μM arm, 265 nm, ~6.4 J/cm^2): 10.8 µM
Pre-UV S-59 ([1]; P. acnes plasma, 15 μM arm, 280 nm arm): 15.7 µM
Post-UV S-59 ([1]; P. acnes plasma, 15 μM arm, 280 nm, ~6.4 J/cm^2): 16.0 µM
Pre-UV S-59 ([1]; P. acnes plasma, 15 μM arm, 310 nm arm): 15.7 µM
Post-UV S-59 ([1]; P. acnes plasma, 15 μM arm, 310 nm, ~6.4 J/cm^2): 2.2 µM
Pre-UV S-59 ([1]; P. acnes plasma, 15 μM arm, 325 nm arm): 15.7 µM
Post-UV S-59 ([1]; P. acnes plasma, 15 μM arm, 325 nm, ~6.4 J/cm^2): 1.1 µM
Pre-UV S-59 ([1]; P. acnes plasma, 15 μM arm, 340 nm arm): 15.7 µM
Post-UV S-59 ([1]; P. acnes plasma, 15 μM arm, 340 nm, ~6.4 J/cm^2): 1.4 µM
Pre-UV S-59 ([1]; P. acnes plasma, 15 μM arm, 365 nm arm): 15.7 µM
Post-UV S-59 ([1]; P. acnes plasma, 15 μM arm, 365 nm, ~6.4 J/cm^2): 5.5 µM
Pre-UV S-59 ([1]; P. acnes plasma, 15 μM arm, 385 nm arm): 15.7 µM
Post-UV S-59 ([1]; P. acnes plasma, 15 μM arm, 385 nm, ~6.4 J/cm^2): 13.7 µM
Pre-UV S-59 ([1]; S. epidermidis plasma, 15 μM arm, 265 nm arm): 14.4 µM
Post-UV S-59 ([1]; S. epidermidis plasma, 15 μM arm, 265 nm, ~3 J/cm^2): 13.0 µM
Pre-UV S-59 ([1]; S. epidermidis plasma, 15 μM arm, 280 nm arm): 14.8 µM
Post-UV S-59 ([1]; S. epidermidis plasma, 15 μM arm, 280 nm, ~3 J/cm^2): 11.8 µM
Pre-UV S-59 ([1]; S. epidermidis plasma, 15 μM arm, 310 nm arm): 14.3 µM
Post-UV S-59 ([1]; S. epidermidis plasma, 15 μM arm, 310 nm, ~3 J/cm^2): 5.2 µM
Pre-UV S-59 ([1]; S. epidermidis plasma, 15 μM arm, 325 nm arm): 14.9 µM
Post-UV S-59 ([1]; S. epidermidis plasma, 15 μM arm, 325 nm, ~3 J/cm^2): 3.7 µM
Pre-UV S-59 ([1]; S. epidermidis plasma, 15 μM arm, 340 nm arm): 14.8 µM
Post-UV S-59 ([1]; S. epidermidis plasma, 15 μM arm, 340 nm, ~3 J/cm^2): 3.6 µM
Pre-UV S-59 ([1]; S. epidermidis plasma, 15 μM arm, 365 nm arm): 14.8 µM
Post-UV S-59 ([1]; S. epidermidis plasma, 15 μM arm, 365 nm, ~3 J/cm^2): 7.8 µM
Pre-UV S-59 ([1]; S. epidermidis plasma, 15 μM arm, 385 nm arm): 15.0 µM
Post-UV S-59 ([1]; S. epidermidis plasma, 15 μM arm, 385 nm, ~3 J/cm^2): 15.1 µM
residual amotosalen ([1]; amotosalen+325 nm and amotosalen+340 nm illumination): less than 5 μM
Titer Post-Second (S. epidermidis; Light 1 265 nm then Light 2 325 nm): <−0.11
Titer Post-Second (S. epidermidis; Light 1 265 nm then Light 2 340 nm): <−0.11
Titer Post-Second (S. epidermidis; Light 1 265 nm then Light 2 365 nm): <−0.11
Titer Post-First (S. epidermidis; Light 1 265 nm ~3 J/cm^2 (then 325 nm)): 4.19
Titer Post-First (S. epidermidis; Light 1 265 nm ~3 J/cm^2 (then 340 nm)): 4.37
Titer Post-First (S. epidermidis; Light 1 265 nm ~3 J/cm^2 (then 365 nm)): 4.12
Titer Post-Second (S. epidermidis; Light 1 280 nm then Light 2 325 nm): <−0.11
Titer Post-Second (S. epidermidis; Light 1 280 nm then Light 2 340 nm): <−0.11
Titer Post-Second (S. epidermidis; Light 1 280 nm then Light 2 365 nm): <−0.11
Titer Post-First (S. epidermidis; Light 1 280 nm ~3 J/cm^2 (then 325 nm)): 4.13
Titer Post-First (S. epidermidis; Light 1 280 nm ~3 J/cm^2 (then 340 nm)): 4.51
Titer Post-First (S. epidermidis; Light 1 280 nm ~3 J/cm^2 (then 365 nm)): 4.19
Titer Post-Second (S. epidermidis; Light 1 325 nm then Light 2 265 nm): <−0.11
Titer Post-Second (S. epidermidis; Light 1 325 nm then Light 2 280 nm): <−0.11
Titer Post-First (S. epidermidis; Light 1 325 nm ~3 J/cm^2 (then 265 nm)): <−0.11
Titer Post-First (S. epidermidis; Light 1 325 nm ~3 J/cm^2 (then 280 nm)): <−0.11
Titer Post-Second (S. epidermidis; Light 1 340 nm then Light 2 265 nm): <−0.11
Titer Post-Second (S. epidermidis; Light 1 340 nm then Light 2 280 nm): <−0.11
Titer Post-First (S. epidermidis; Light 1 340 nm ~3 J/cm^2 (then 265 nm)): <−0.11
Titer Post-First (S. epidermidis; Light 1 340 nm ~3 J/cm^2 (then 280 nm)): 0.73
Titer Post-Second (S. epidermidis; Light 1 365 nm then Light 2 265 nm): <−0.11
Titer Post-Second (S. epidermidis; Light 1 365 nm then Light 2 280 nm): <−0.11
Titer Post-First (S. epidermidis; Light 1 365 nm ~3 J/cm^2 (then 265 nm)): <−0.11
Titer Post-First (S. epidermidis; Light 1 365 nm ~3 J/cm^2 (then 280 nm)): <−0.11
S-59 concentration post-illumination ([2]; 340 nm LED, ~3.6 J/cm^2): 9 µM
S-59 concentration post-illumination ([2]; 340 nm LED, ~7.2 J/cm^2): 2 µM
S-59 concentration post-illumination ([2]; 340 nm LED, ~10.8 J/cm^2, <LOQ): 0.98 µM
HPLC area counts ([2]; 340 nm, 0 J/cm^2): 1826
% Residual S-59 ([2]; 340 nm): 0.5%
HPLC area counts ([2]; 340 nm, 3.6 J/cm^2): 106
HPLC area counts ([2]; 340 nm, 7.2 J/cm^2): 24
HPLC area counts ([2]; 340 nm, 10.8 J/cm^2): 11
S-59 concentration post-illumination ([2]; 365 nm LED, ~3.6 J/cm^2): 42 µM
S-59 concentration post-illumination ([2]; 365 nm LED, ~7.2 J/cm^2): 15 µM
S-59 concentration post-illumination ([2]; 365 nm LED, ~10.8 J/cm^2): 7 µM
HPLC area counts ([2]; 365 nm, 0 J/cm^2): 1753
% Residual S-59 ([2]; 365 nm): 4.9%
HPLC area counts ([2]; 365 nm, 3.6 J/cm^2): 514
HPLC area counts ([2]; 365 nm, 7.2 J/cm^2): 183
HPLC area counts ([2]; 365 nm, 10.8 J/cm^2): 84
HPLC area counts ([2]; INT 100, 0 J/cm^2): 1753
% Residual S-59 ([2]; INT 100): 3.1%
HPLC area counts ([2]; INT 100, 3.6 J/cm^2): 396
HPLC area counts ([2]; INT 100, 7.2 J/cm^2): 129
HPLC area counts ([2]; INT 100, 10.8 J/cm^2): 56
S-59 concentration post-illumination ([2]; INT-100, ~3.6 J/cm^2): 32 µM
S-59 concentration post-illumination ([2]; INT-100, ~7.2 J/cm^2): 11 µM
S-59 concentration post-illumination ([2]; INT-100, ~10.8 J/cm^2): 5 µM
